Data set [1] concerns contact pathway. In words: CAT in normal plasma with and without CTI. It counts as biochemical.
The subject of data set [2] is FVIII-inhibited human whole blood. In words: Rotation thromboelastometry (ROTEM). The settings on record: ROTEM, 0.044 pM TF. As for the experimental part:
NASPs (0.4-11 μg/mL) were studied in fresh citrated human whole blood by rotation thromboelastometry (ROTEM), an assay that allows continuous visco-elastic assessment of whole blood clot formation and firmness. Blood was incubated with anti-human FVIII plasma raised in goat (Baxter Bioscience, Austria) at 50 BU/mL to simulate hemophilic conditions. Clotting was triggered with 0.044 pM tissue factor (TF) (PRP reagent, Thrombinoscope BV) in the presence of 40 μg/mL CTI (Haematologic Technologies Inc., Essex Junction, Vt., USA). Then 300 μL of the pre-warmed (37° C.) FVIII-inhibited blood was recalcified with 20 μL of a 0.2 M CaCl2 solution. Clot formation was monitored using a ROTEM instrument (Pentapharm Munich, Germany) at 37° C. The final assay concentration of rTF was 44 fM. The ROTEM recording was started immediately and measured for at least 120 min. Each blood sample was analyzed in two independent measurements.
The thromboelastographic parameters of clotting time (CT), clot formation time (CFT) and maximum clot firmness (MCF) were recorded in accordance with the manufacturer's instructions. The first derivative of the thromboelastogram data is plotted to obtain a graph of velocity (mm/s) against time (s). From this graph, the maximum velocity (maxV) and the time at which the maximum velocity is reached (maxV-t) are also determined.

In data set [3] the test system is normal human plasma. Description: Activated partial thromboplastin time assay (aPTT). The data set is classed as biochemical. As for the experimental part:
The aPTT assay was performed to study anticoagulant activities of NASP. In brief, 50 μL of thawed normal human plasma pool (George King Biomedical, Overland Park, Kans.) was mixed with 5 μL of NASP sample (0-60 μg/mL final plasma concentration). NASPs were diluted in imidazole buffer (3.4 g/L imidazole; 5.85 g/L NaCl, pH 7.4) containing 1% albumin (Baxter, Austria). After addition of 50 μL aPTT reagent (STA APTT, Roche) the samples were incubated for 4 min at 37° C. Clotting was initiated by 50 μL of 25 mM CaCl2 solution (Baxter, Austria) and recorded for up to 5 min. All pipetting steps and clotting time measurements were carried out with an ACL Pro Elite (Instrumentation Laboratory, Bedford, Mass.) instrument. Samples were run in duplicate.
For data analysis, clotting time is plotted against the NASP concentration. Concentrations where the clotting time is 50% increased over the normal plasma control are determined using a linear curve fit.

Data set [4] concerns FVIII-inhibited plasma. Description: Thrombin generation assay (CAT) in FVIII-inhibited plasma. The settings on record: for EC50: half maximal thrombin peak, 1 pM hTF, 4 μM PL. It counts as biochemical, human. As for the experimental part: The procoagulant activity of the sulfated polysaccharides was assessed by the Thrombin Generation Assay (TGA). The influence of each sulfated polysaccharide on thrombin generation was measured in duplicate via CAT in a Fluoroskan Ascent® reader (Thermo Labsystems, Helsinki, Finland; filters 390 nm excitation and 460 nm emission) following the slow cleavage of the fluorogenic substrate Z-Gly-GIy-Arg-AMC (Hemker H C. Pathophysiol Haemost Thromb (2003) 33(4):15). To each well of a 96 well microplate (Immulon 2HB, clear U-bottom; Thermo Electron) 80 μL of pre-warmed (37° C.) goat anti FVIII antibody treated human normal plasma pool was added. For triggering thrombin generation by tissue factor, 104 of PPP reagent containing a certain amount of recombinant human tissue factor (rTF) and phospholipid vesicles composed of phosphatidylserine, phosphatidylcholine and phosphatidylethanolamine (final concentration of 4 μM) (Thrombinoscope BV, Maastricht, The Netherlands) was added. For studying the procoagulant activity of sulfated polymers a final TF concentration of 1 pM was used to provide FVIII and TFPI sensitivity of the test system. Just prior to putting the plate into the pre-warmed (37° C.) reader, 10 µL of test or reference sample or calibrator compound was added. Thrombin generation was started by dispensing 204 of FluCa reagent (Thrombinoscope BV, Maastricht, The Netherlands) containing fluorogenic substrate and Hepes buffered CaCl2 (100 mM) into each well and fluorescence intensity was recorded at 37° C.
The parameters of the resulting thrombin generation curves were calculated using the Thrombinoscope™ software (Thrombinoscope BV, Maastricht, The Netherlands) and thrombin calibrator to correct for inner filter and substrate consumption effects (Hemker H C, Pathophysiol Haemost Thromb (2003) 33(4):15). With the thrombin calibrator as a reference, the molar concentration of thrombin in the test wells was calculated by the software. The thrombin amounts at the peak and peak times of each thrombin generation curve (peak thrombin, nM) were plotted against sulfated polysaccharide concentrations resulting in the procoagulant profile of these compounds. The thrombin generation assay results are illustrated in the figures appended hereto. From these plots half maximal effective concentrations (EC50) values are determined using a sigmoidal curve fit. The EC50 represents the concentration at which the half maximal thrombin peak is reached.

Data set [5] addresses T1, full-length TFPI (Homo sapiens, UniProt P10646).
T1 construct: 0.5 μg/mL full-length TFPI (aa 1-276, constitutively produced by SKHep1); made in house; host or cells: SKHep1
T1 sequence (P10646 29-304): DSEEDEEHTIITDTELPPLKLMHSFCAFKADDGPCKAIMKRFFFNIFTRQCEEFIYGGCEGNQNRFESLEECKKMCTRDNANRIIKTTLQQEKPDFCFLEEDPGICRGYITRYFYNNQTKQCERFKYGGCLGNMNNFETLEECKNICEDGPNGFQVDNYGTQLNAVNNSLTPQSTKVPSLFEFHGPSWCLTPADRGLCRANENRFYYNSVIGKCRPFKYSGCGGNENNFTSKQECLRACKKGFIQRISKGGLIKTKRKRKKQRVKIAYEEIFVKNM
Description: Dilute prothrombin time assay with added TFPI (TFPI-dPT). It counts as biochemical. The protocol: A dilute prothrombin time assay with added TFPI (TFPI-dPT) was used to evaluate the TFPI-inhibiting effect of the different NASPs. Pooled normal human plasma (George King Biomedical, Overland Park, Kans.) was pre-incubated with 0.5 μg/mL full-length TFPI (aa 1-276, constitutively produced by SKHep1) and the respective NASP (0-5 μg/mL) for 15 min at RT. TF reagent TriniClot PT Excel S (Trinity Biotech, Wicklow, Ireland), diluted in Hepes-buffered saline 1:200 with 0.5% BSA was added to the plasma samples on an ACL Pro Elite hemostasis analyzer (Instrumentation Laboratory, Bedford, Mass.). Clotting was initiated with 25 mM CaCl2). The volume ratio of plasma:TF:CaCl2 was 1:1:1.
For data analysis, TFPI-dPT is plotted against the log concentration. Half maximal effective concentrations (EC50) values are determined using a sigmoidal curve fit.

Where [6] appears, read: listed as sulfated β-cyclodextrin.

The EC50 is the midpoint of the concentration-response curve. A lower EC50 goes with a more potent agent.

For “sulfated β-cyclodextrin [β-Cyclodextrin (Sigma)]”, in data set [1], the “activation of the contact pathway (in words)” value is “No activation of the contact pathway”. In data set [1] (normal plasma, 1 pM hTF, 4 μM PL, ±41 μg/mL CTI), the “concentration activating the contact pathway” value was over 33000 ng/mL. For the same substance, the “restoration of coagulation (in words)” value is on record as “restore coagulation parameters of FVIII-inhibited whole blood” in data set [2] and “restores coagulation to normal in FVIII-inhibited blood” in data set [2] (listed as sulfated β-cyclodextrin (18.9% S)). For the same substance, the “Ratio aPTT/CAT” value in data set [3] (50% increase clotting time / CAT EC50) came to 5.1. Besides, in data set [3] (aPTT compared with procoagulant CAT concentration), the “anticoagulant activity (in words)” value is “become anticoagulant within their procoagulant window”. Also, the “50% Increase Clotting Time” value in data set [3] (concentration where clotting time is 50% increased over normal plasma control) worked out at 3.6 µg/mL. Also, the EC50 in data set [4] was 1.8 µg/mL; in data set [4] (setting [6]), 0.7 µg/mL; in data set [4] (listed as β-cyclodextrin), “about 2 μg/mL”. The “procoagulant activity (in words)” value is recorded as “good procoagulant activity” in data set [4] (setting [6]) and “substantial procoagulant activity” in data set [4] (listed as β-cyclodextrin). Moreover, the “reversal of the effect of rec. FL-TFPI (in words)” value in data set [5] (normal human plasma) is listed as “reverses the effect of rec. FL-TFPI in plasma”. Also, in data set [5] (normal human plasma with rec. FL-TFPI), the “EC50 TFPI-dPT” value was 0.08 µg/mL.
